{
  "source": "patent US12589104B2",
  "about": "“Thiosaccharides for use in treating coronavirus infection” (priority 2020, dated 2026)",
  "biological_target": "SARS-CoV-2 RBD^N501Y binding to ACE2 (Severe acute respiratory syndrome coronavirus 2, UniProt P0DTC2, N501Y)",
  "data": [
    {"smiles": "NCCS", "note": "[Cysteamine]", "values": [
      {"measurement": "inhibition of binding of RBD^N501Y to ACE2", "value": "potently inhibited"}
    ]}
  ]
}
